From patent publication US20160312240A1, “MODIFIED PYR/PYL RECEPTORS ACTIVATED BY ORTHOGONAL LIGANDS” (The Regents of the University of California, priority 2010, published 2016)

What was measured:
[1] = system: PYR1 variants 27C-1, 27C-2, 27C-3, 27C-5, 27C-16, 27C-18, 27C-19, 27C-20, 27C-21 (Table 8); test: MAV99 growth selection, third round of shuffling; type: cell-based, Arabidopsis; details: 1.5 μM fenhexamid; media lacking uracil; Table 8 variants
Experimental: A third round of shuffling was conducted by combining DNA for the “27B′” mutants shown in Table 7 and ePCR1 library to create a library of ˜150,000 clones which was then transformed into MAV99 pAD-HAB 1. Constitutive mutants were then depleted by growth on FOA after which fenhexamid sensitive mutants were selected by growth on media lacking uracil but containing 1.5 μM fenhexamid, using the methods described above.

[2] = system: PYL2 K64R,Y124H,M164I,V67I,V114I transgenic plants; test: Water loss from detached aerial rosettes; type: in vivo, Arabidopsis; details: 100 μM spray, approximately 16 hours pretreatment, FIG. 6A-C
Experimental: FIGS. 6A-6C. Fenhexamid reduces water loss in transgenic PYL2^K64R, Y124H, M164I, V67I, V114I expressing plants. Shown are three independent water loss experiments (FIGS. 6A-C) conducted on transgenic plants treated with control, 100 μM fenhexamid, or 100 μM ABA containing solutions. Plants were treated as described in the Examples section below and water loss from aerial rosettes was measured after detachment.
Transgenic or control (wild-type) plants were grown under a 16 hr light/8 hr dark cycle for 3 weeks and then treated with either 100 μM (+)-ABA, 100 μM fenhexamid, or control (containing 0.1% Tween-20, 0.1% DMSO). ABA treatments were conducted as a positive control. The plants were sprayed in the evening prior to conducting water loss experiments. The next morning, approximately 16 hours post-treatment, the above-ground rosettes of the experimental samples were collected and transferred to weighing dishes, 8 plants per measured sample, and maintained under ˜90-100 μEinstein/m^2 fluorescent light illumination. Four groups of eight plants were measured per time point at 20 min intervals. The experiments were repeated three times over the course of an eight-week interval. […]

[3] = system: wild-type Columbia plants; test: Water loss from detached aerial rosettes; type: in vivo, Arabidopsis; details: 100 μM spray, approximately 16 hours pretreatment, FIG. 7
Experimental: FIG. 7. […] Columbia plants were treated with control, 100 μM fenhexamid, or 100 μM ABA containing solutions. Plants were treated as described in the Examples section below and water loss from aerial rosettes was measured after detachment.
Transgenic or control (wild-type) plants were grown under a 16 hr light/8 hr dark cycle for 3 weeks and then treated with either 100 μM (+)-ABA, 100 μM fenhexamid, or control (containing 0.1% Tween-20, 0.1% DMSO). ABA treatments were conducted as a positive control. The plants were sprayed in the evening prior to conducting water loss experiments. The next morning, approximately 16 hours post-treatment, the above-ground rosettes of the experimental samples were collected and transferred to weighing dishes, 8 plants per measured sample, and maintained under ˜90-100 μEinstein/m^2 fluorescent light illumination. Four groups of eight plants were measured per time point at 20 min intervals. The experiments were repeated three times over the course of an eight-week interval. […] It should be noted, however, that ABA can activate all of the PYR/PYL receptors in a plant genome (at least 13 in Arabidopsis), while fenhexamid is selectively activating a single engineered receptor, PYL2^K64R,Y124H,M164I,V67I,V114I. […]

[4] = molecular target: T1, PYR1 K59R,Y120H,M158I triple mutant (Arabidopsis thaliana, UniProt O49686, K59R/M158I/Y120H); test: In vitro receptor (PP2C) assay, 2:1 receptor to phosphatase; type: biochemical
T1 construct: 6×-His (N); made in house
Experimental: FIGS. 2A-2B. […] FIG. 2A. The mutants (listed on left side of panel) were constructed in pBD-PYR1 and transformed into Y190 pAD-HAB1 yeast cells. The transformants were then grown on increasing concentrations of fenhexamid and scored for responsiveness using X-gal staining, performed as described in Park et al., 2009. As shown, the mutations K59R, Y120H, and M1581 are necessary for fenhexamid response by 27C-2. FIG. 2B. In vitro characterization of the PYR1 K59R, Y120H, M158I mutant. Recombinant wild-type and mutant PYR1 proteins were produced as described previously and used in PP2C assays, as described previously (Park et al., 2009), with the exception that a 2:1 ratio of receptor to phosphatase was utilized.
To establish the relevance of the residues identified by our screens, we focused on a highly sensitive fenhexamid-responsive mutant identified, 27C-2, which contains 5 mutations (P42S, K59R, R74C, Y120H, and M158I; SEQ ID NO:171; see Table 8) in comparison to the wild-type PYR1 sequence. […] To probe the role of the 5 mutations in fenhexamid response, each of these residues were reverted back to the wild-type residue using site-directed mutagenesis.

[5] = molecular target: T2, PYL2 K64R,Y124H,M164I,V67I,V114I (Arabidopsis thaliana, UniProt O80992, K64R/M164I/V114I/V67I/Y124H); test: In vitro PP2C inhibition assay, 2:1 receptor to phosphatase; type: biochemical; details: FIG. 3B
T2 construct: expressed in transfected cells; host or cells: Saccharomyces cerevisiae Y190 pAD-HAB1
Experimental: FIGS. 3A-3B. […] FIG. 3A. […] In addition, pocket residue mutations at V114I and/or V67I were introduced. The mutants (listed on left side of panel) were constructed in pBD-PYL2 and transformed into Y190 pAD-HAB1 yeast cells. The transformants were then grown on increasing concentrations of fenhexamid and scored for responsiveness using X-gal staining, performed as described in Park et al., 2009. […] FIG. 3B. In vitro characterization of PYL2 K64R, Y124H, M164I, V67I, V114I mutant. Recombinant wild-type and mutant PYL2 proteins were produced as described previously and used in PP2C assays, as described previously (Park et al., 2009), with the exception that a 2:1 ratio of receptor for phosphatase was used.
PYR1 is a member of the PYR/PYL receptor protein family, which in Arabidopsis contains 14 members. […] Given the conserved nature of these residues, we speculated that fenhexamid sensitivity could be engineered into other receptor family members by mutating homologous residues in other PYR/PYL receptors. To test this, we introduced the homologous mutations in PYL2 (K64R, corresponding to K59R in PYR1; Y124H, corresponding to Y120H in PYR1; and M164I, corresponding to M158I in PYR1), creating the mutant PYL2^K64R,Y124H,M164I. […]

T2 sequence (Q9CAJ0 23-511): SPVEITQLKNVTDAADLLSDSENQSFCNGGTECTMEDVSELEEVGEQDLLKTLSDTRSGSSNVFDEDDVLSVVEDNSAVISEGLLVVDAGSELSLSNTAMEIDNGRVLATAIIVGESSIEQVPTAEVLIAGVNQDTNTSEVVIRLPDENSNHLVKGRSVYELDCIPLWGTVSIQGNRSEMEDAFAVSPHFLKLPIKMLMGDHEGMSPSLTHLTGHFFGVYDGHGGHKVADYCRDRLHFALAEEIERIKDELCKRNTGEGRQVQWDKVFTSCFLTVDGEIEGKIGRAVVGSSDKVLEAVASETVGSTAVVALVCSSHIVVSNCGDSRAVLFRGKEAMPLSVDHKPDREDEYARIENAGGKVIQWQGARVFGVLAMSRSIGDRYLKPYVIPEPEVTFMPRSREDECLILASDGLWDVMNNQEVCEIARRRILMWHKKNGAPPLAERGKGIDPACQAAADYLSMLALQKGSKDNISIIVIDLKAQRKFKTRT
T2 sequence (O80992 whole entry K64R/V67I/V114I/Y124H/M164I): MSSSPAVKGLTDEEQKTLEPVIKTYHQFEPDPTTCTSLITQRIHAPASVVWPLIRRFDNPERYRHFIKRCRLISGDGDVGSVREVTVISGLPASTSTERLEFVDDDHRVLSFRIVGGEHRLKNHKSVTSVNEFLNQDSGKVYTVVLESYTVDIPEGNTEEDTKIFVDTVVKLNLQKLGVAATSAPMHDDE
T1 sequence (O49686 whole entry K59R/Y120H/M158I): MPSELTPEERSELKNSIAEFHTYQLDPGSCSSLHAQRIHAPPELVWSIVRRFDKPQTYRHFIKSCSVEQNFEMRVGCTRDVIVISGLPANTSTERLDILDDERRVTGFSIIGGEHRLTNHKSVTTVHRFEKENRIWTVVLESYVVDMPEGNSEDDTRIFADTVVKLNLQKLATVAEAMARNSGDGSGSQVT
T1 sequence (Q9CAJ0 23-511, further chain): as the sequence (Q9CAJ0 23-511) above

SMILES: CC1(C(=O)Nc2ccc(O)c(Cl)c2Cl)CCCCC1 [fenhexamid]
- Growth in response to fenhexamid (selection) [1]: fenhexamid responsive
- Water loss from detached rosettes [2]: sufficient to reduce water loss
- Water loss from detached rosettes [3]: does not affect water loss
- IC50 [4]: ~0.4 µM
- Response to fenhexamid in in vitro PP2C inhibition assays [5]: respond
